Read-outs that look alike come from different tables or passages of the source.
Legend:
ATF4 = ATF4 expression inhibition assay (thapsigargin-stressed HEK293T cells, western blot); type: cell-based; settings: Homo sapiens, HEK-293T; for IC50: 3 h with 100 nM Tg, test compound 1 nM to 1 μM; for inhibition at 0.1 µM: 3 h with 100 nM thapsigargin (Tg) and 100 nM test compound; for inhibition at 0.1 µM / inhibition at 1 µM: Tg alone 0%, untreated 100%; for inhibition at 1 µM: 3 h with 100 nM thapsigargin (Tg) and 1 μM test compound
Method: HEK293T cells were maintained at 37° C. and 5% CO2 in Dulbecco's Modified Eagle's Media (DMEM) supplemented with 10% fetal bovine serum (FBS), 2 mM L-glutamine, 100 U/ml penicillin, and 100 μg/ml streptomycin. […] Cells without treatment or cells treated with Tg alone were used as controls.
After 3 hours of treatment with Tg and the test compound, cells were lysed with SDS-PAGE lysis buffer. Lysates were transferred to 1.5 ml tubes and sonicated for 3 min, and total protein amounts were quantified using BCA Protein Assay Kit (Pierce). Equal amount of proteins were loaded on SDS-PAGE gels. Proteins were transferred onto 0.2 μm PVDF membranes (BioRad) and probed with primary antibodies diluted in Tris-buffered saline supplemented with 0.1% Tween 20 and 3% bovine serum albumin.
(§1) ATF4 (11815) antibody was used as primary antibody (Cell Signaling Technologies). A horseradish peroxidase (HRP)-conjugated secondary antibody (Rockland) was employed to detect immune-reactive bands using enhanced chemiluminescence (ECL Western Blotting Substrate, Pierce). Quantification of protein bands was done by densitometry using ImageJ.
Percentages of ATF4 inhibition after induction with Tg in the presence of 100 nM or 1 μM of certain test compounds are shown in Table 2 and FIG. 1. Percentage of ATF4 inhibition was calculated as the percent reduction normalized to Tg treatment (0% inhibition) and untreated cells (100% inhibition). Also shown in Table 2 is the calculated IC50 for the test compounds. […] Accordingly, inhibition of ATF4 expression as a result of the test compound indicates suppression of the ISR pathway.

CHO cells = assay: Protein translation assay (puromycin incorporation in CHO cells, unstressed or Tg-stressed); type: cell-based, Chinese hamster; settings: Cricetulus griseus, media alone 100%; for activity at 0.1 µM: read-out: % Recovery of protein expression (100 nM test compound)
Method: CHO cells were maintained at 37° C. and 5% CO2 in DMEM supplemented with 10% fetal bovine serum (FBS), 2 mM L-glutamine, 100 U/ml penicillin, and 100 μg/ml streptomycin. After reaching 80% of confluence, cells were detached and seeded on 6 well plates in complete media, allowed to recover overnight and treated for 2 hours with 1 μM of the test compound (to assess protein synthesis levels in unstressed condition), or for 1 hour with 100 nM and 1 μM of the test compound and then co-treated with 300 nM Tg and 100 nM and 1 μM of the test compound (to assess the recovery of protein synthesis in a stressed condition). Cells treated with Tg alone were used as controls.
After the 2 hours treatments, media were replaced by adding 10 μg/ml puromycin (Sigma Aldrich) in complete media for 30 min. Media were removed and cells were lysed with SDS-PAGE lysis buffer. Lysates were transferred to 1.5 ml tubes and sonicated for 3 minutes and total protein amount were quantified using BCA Protein Assay Kit (Pierce). Equal amount of protein (30 μg) was loaded on SDS-PAGE gels. Proteins were transferred onto 0.2 μm PVDF membranes (BioRad) and probed with primary antibodies diluted in Tris-buffered saline supplemented with 0.1% Tween 20 and 3% bovine serum albumin.
as §1, with “Puromycin (12D10)” for “ATF4 (11815)”, “(Merck Millipore).” for “(Cell Signaling Technologies).”, “HRP-conjugated” for “horseradish peroxidase (HRP)-conjugated”
Percent increase of protein synthesis in unstressed cells (without Tg treatment) in the presence of media alone or certain test compounds is shown in Table 3 and FIG. 2. The percentage levels were normalized to the media alone condition, which correspond to 100% protein synthesis.
Percent recovery of protein synthesis in stressed cells (with Tg treatment) due to the test compounds at 100 nM or 1 μM is shown in FIGS. 3A and 3B, respectively, and in Table 3. The levels were normalized to the media alone and to Tg alone conditions, which correspond to 100% and 0% respectively.

[1] = CHO cells stressed with 300 nM Tg, Tg alone 0%
[2] = CHO cells stressed with 300 nM Tg, Tg alone 0%, read-out: % Recovery of protein expression (1 μM test compound)
[3] = unstressed CHO cells, 2 h, read-out: % Protein expression relative to untreated (1 μM test compound)

SMILES | IC50 (ATF4) | inhibition at 0.1 µM (ATF4) | inhibition at 1 µM (ATF4) | activity at 0.1 µM (CHO cells; [1]) | activity at 1 µM (CHO cells; [2]) | activity at 1 µM (CHO cells; [3])
O=C(COc1ccc(Cl)c(F)c1)NC1CCN(CC(O)COc2ccc(Cl)c(F)c2)CC1 (single isomer, unassigned; (-)) [Compound 26, (−)-2-(4-chloro-3-fluorophenoxy)-N-(1-(3-(4-chloro-3-fluorophenoxy)-2-hydroxypropyl)piperidin-4-yl)acetamide] | 0.027 µM | 91% | 97% | 34.2% | 176% | 112%
O=C(N[C@H]1CC[C@H](NCC(O)COc2ccc(Cl)c(F)c2)CC1)c1cc2cc(Cl)ccc2o1 (single isomer, unassigned; (-)) [Compound 155, (−)-trans-5-chloro-N-(4-((3-(4-chloro-3-fluorophenoxy)-2-hydroxypropyl)amino)cyclohexyl)benzofuran-2-carboxamide] | – | 60% | 75% | 68.5% | 190% | 263%
O=C(COc1ccc(Cl)cc1)N[C@H]1CC[C@H](NC(=O)C2CNc3cc(Cl)ccc3O2)CC1 (single isomer, unassigned; (-)) [Compound 157, (−)-trans-6-chloro-N-(4-(2-(4-chlorophenoxy)acetamido)cyclohexyl)-3,4-dihydro-2H-benzo[b][1,4]oxazine-2-carboxamide] | 0.0238 µM | 96% | 100% | 39.7% | 97.3% | 118%
O=C(COc1ccc(Cl)cc1)N[C@H]1CC[C@H](NCC(O)COc2ccc(Cl)cc2)CC1 (stereo partly drawn) [Compound 1, trans-2-(4-chlorophenoxy)-N-(4-((3-(4-chlorophenoxy)-2-hydroxypropyl)amino)cyclohexyl)acetamide] | 0.353 µM | 0% | 71% | 63.8% | 160% | 152%
O=C(COc1ccc(Cl)c(F)c1)N[C@H]1CC[C@H](NCC(O)COc2ccc(Cl)c(F)c2)CC1 (stereo partly drawn) [Compound 2, trans-2-(4-chloro-3-fluorophenoxy)-N-(4-((3-(4-chloro-3-fluorophenoxy)-2-hydroxypropyl)amino)cyclohexyl)acetamide] | 0.163 µM | 40% | 56% | 42.5% | 135% | 136%
O=C(COc1ccc(Cl)cc1)NC1CCN(CC(O)COc2ccc(Cl)cc2)CC1 (centres unmarked) [Compound 5, 2-(4-chlorophenoxy)-N-(1-(3-(4-chlorophenoxy)-2-hydroxypropyl)piperidin-4-yl)acetamide] | 0.17 µM | 42% | 94% | 64.9% | 189% | 130%
O=C(COc1ccc(Cl)c(F)c1)N[C@H]1CC[C@H](NCC(O)COc2ccc(Cl)cc2)CC1 (stereo partly drawn) [Compound 10, trans-2-(4-chloro-3-fluorophenoxy)-N-(4-((3-(4-chlorophenoxy)-2-hydroxypropyl)amino)cyclohexyl)acetamide] | – | 0% | 11% | 30.6% | 127% | –
O=C(COc1ccc(Cl)c(F)c1)NC1CCN(CC(O)COc2ccc(Cl)c(F)c2)CC1 (centres unmarked) [Compound 13, 2-(4-chloro-3-fluorophenoxy)-N-(1-(3-(4-chloro-3-fluorophenoxy)-2-hydroxypropyl)piperidin-4-yl)acetamide] | 0.0572 µM | 57% | 93% | 49.6% | 159% | 94%
O=C(COc1ccc(Cl)c(F)c1)N[C@H]1CC[C@H](NC(=O)c2cc3cc(Cl)ccc3o2)CC1 [Compound 17, trans-5-chloro-N-(4-(2-(4-chloro-3-fluorophenoxy)acetamido)cyclohexyl)benzofuran-2-carboxamide] | 0.00952 µM | 95% | 98% | 87% | 172% | 93.2%
O=C(COc1ccc(Cl)c(F)c1)N[C@H]1CC[C@H](NC(=O)C2Cc3cc(Cl)ccc3O2)CC1 (stereo partly drawn) [Compound 19, trans-5-chloro-N-(4-(2-(4-chloro-3-fluorophenoxy)acetamido)cyclohexyl)-2,3-dihydrobenzofuran-2-carboxamide] | – | 94% | 100% | 14.1% | 116% | –
O=C(NC1CCN(CC(O)COc2ccc(Cl)c(F)c2)CC1)C1Cc2cc(Cl)ccc2O1 (centres unmarked) [Compound 20, 5-chloro-N-(1-(3-(4-chloro-3-fluorophenoxy)-2-hydroxypropyl)piperidin-4-yl)-2,3-dihydrobenzofuran-2-carboxamide] | – | 14% | 64% | 38.6% | 93.9% | –
O=C(NC1CCN(CC(O)COc2ccc(Cl)c(F)c2)CC1)c1ccc2cc(Cl)ccc2c1 (centres unmarked) [Compound 21, 6-chloro-N-(1-(3-(4-chloro-3-fluorophenoxy)-2-hydroxypropyl)piperidin-4-yl)-2-naphthamide] | – | 54% | 78% | 70.5% | 182% | –
O=C(NC1CCN(CC(O)COc2ccc(Cl)c(F)c2)CC1)c1ccc2cc(Cl)ccc2n1 (centres unmarked) [Compound 22, 6-chloro-N-(1-(3-(4-chloro-3-fluorophenoxy)-2-hydroxypropyl)piperidin-4-yl)quinoline-2-carboxamide] | 0.103 µM | 21% | 81% | 67.3% | 264% | 170%
O=C(COc1ccc(Cl)c(F)c1)N[C@H]1CC[C@H](NC(=O)c2ccc3cc(Cl)ccc3n2)CC1 [Compound 23, trans-6-chloro-N-(4-(2-(4-chloro-3-fluorophenoxy)acetamido)cyclohexyl)quinoline-2-carboxamide] | 0.0021 µM | 97% | 99% | 79.2% | 176% | 120%
O=C(COc1ccc(Cl)c(F)c1)N[C@H]1CC[C@H](NC(=O)c2cc3ccncc3o2)CC1 [Compound 24, trans-N-(4-(2-(4-chloro-3-fluorophenoxy)acetamido)cyclohexyl)furo[2,3-c]pyridine-2-carboxamide] | – | 18% | 54% | 11.8% | 24.3% | –
CC1(C)CC(NC(=O)COc2ccc(Cl)c(F)c2)CC(C)(C)N1CC(O)COc1ccc(Cl)c(F)c1 (centres unmarked) [Compound 25, 2-(4-chloro-3-fluorophenoxy)-N-(1-(3-(4-chloro-3-fluorophenoxy)-2-hydroxypropyl)-2,2,6,6-tetramethylpiperidin-4-yl)acetamide] | – | 0% | 0% | 11.4% | 22.9% | –

From patent US11230542B2, “Inhibitors of integrated stress response pathway” (Praxis Biotech LLC, priority 2017, dated 2022)
